We go through 13 compounds from article PMC2866470, “Teratogenic Effects of Diatom Metabolites on Sea Urchin Paracentrotus lividus Embryos” (Marine Drugs, 2010).

Read-outs that look alike come from different tables or passages of the source.

For data set [1], the system named is Paracentrotus lividus embryos. Kind of data set: Embryotoxicity test: inhibition of first cell cleavage in sea urchin embryos. It is filed as in vivo. The conditions noted are these: for Concentration at which arrest (100% blockage) of cell cleavage occurs: circa 90 min after fertilization, 20 °C. The protocol: (§1) Paracentrotus lividus (Lamarck) sea urchins were collected during the breeding season by SCUBA diving in the Gulf of Naples and transported in an insulated box to the laboratory, within 1 h after collection, and maintained in captivity in well-aerated water at 18 °C in an open circuit. Living organisms were injected with 0.2 mL of 0.2 M acetylcholine (SIGMA-Aldrich, Milan, Italy) through the peribuccal membrane to induce gamete ejection. Spawned eggs were allowed to settle and were washed three times with 0.22 micron filtered sea water (FSW); eggs were then diluted to a final concentration of 3000 eggs mL^−1. Concentrated sperm was collected ‘dry’, mixing samples from at least three different males and stocking undiluted at +4 °C. Sperm mix was diluted 10 μL in 10 mL SW just before insemination and an aliquot of circa 100 μL of this solution was added to 100 mL of egg suspension. At 2–4 min after sperm addition the eggs were checked for successful fertilization and excess sperm were removed by washing the eggs once with FSW.
PUAs and PUFAs were tested on sea urchin early development. […] All concentrations were tested on egg groups collected from three different females. Groups of eggs from the same animals were used as controls. To test the effect of the solvent, other groups of embryos were incubated in 10% methanol, which was the highest concentration of solvent used for incubation experiments. Embryos were kept at 20 °C in a controlled temperature chamber under 12:12 light:dark cycle.
Cleavage inhibition was assessed by counting at least 200 embryos for each well.
Statistical analysis and IC50 calculation were made by using the Prism software (GraphPad software inc. La Jolla, CA, USA).

Data set [2] deals with Paracentrotus lividus embryos. In words: Embryotoxicity test: percentage of hatched sea urchin larvae after 24 hours. The data set is classed as in vivo. Conditions: for Concentration of total inhibition of hatching viability (0% of hatched larvae) / Hatching viability: 24 hours; for Hatching viability: at concentrations of circa 3.0 μM; for Effect on the transition to swimming blastula / larval stage: in vivo. The protocol:
as §1
PUAs and PUFAs were tested on sea urchin early development. […] All concentrations were tested on egg groups collected from three different females. Groups of eggs from the same animals were used as controls. To test the effect of the solvent, other groups of embryos were incubated in 10% methanol, which was the highest concentration of solvent used for incubation experiments. Embryos were kept at 20 °C in a controlled temperature chamber under 12:12 light:dark cycle. […]

Data set [3] deals with Paracentrotus lividus embryos. The arrangement: method as in ref 18 = [18]; 18 Sellem F Pesando D Bodennec G El Abed A Girard JP Toxic effects of Gymnodinium cf. mikimotoi unsaturated fatty acids to gametes and embryos of the sea urchin Paracentrotus lividus Water Res 2000 34. The conditions noted are these: P. lividus; cited from earlier work.
The test system of data set [4] is Sphaerechinus granularis embryos. The conditions noted are these: cited from earlier work.
Data set [5] in a line: Decadienal stability in nutrient enriched sea water (f/2 medium), spectrophotometric. The data set is classed as physicochemical. As for the experimental part: Decadienal stock solution was prepared by diluting a known amount of the substance (determined by weight) in methanol. The methanolic solution was further diluted in autoclaved f/2 medium to achieve decadienal concentration ranging from 0.66 to 32.89 μM. A standard curve was generated by reporting the absorbance at 274 nm of decadienal as a function of its concentration (each determination was performed in triplicate).
To verify decadienal stability, solutions were prepared in triplicate at a starting concentration of 8.96 μM in 250 mL f/2 and incubated in a polystyrene culture flask closed with a screw cap. The UV spectrum and absorbance reading at 274 nm were assessed with time. Decadienal concentration was determined on the basis of a standard curve.

In a further data set the test system is Ciona intestinalis. Set-up: method as in PMID 12874802. The conditions noted are these: printed equivalent 1.32 μM; cited from earlier work.
Data set [6] concerns Paracentrotus lividus embryos and pluteus larvae. In words: TUNEL fluorescence labeling of apoptosis in larvae after 48 hours of exposure. The data set is classed as in vivo. As for the experimental part: P. lividus embryos were incubated as described above in decadienal at concentrations ranging from 1.32 to 6.58 μM for 48 hours. Pluteus larvae were fixed in paraformaldehyde 4% (SIGMA-Aldrich, Milan, Italy) in sea water for 2 hours at room temperature. Fixed sea urchin embryos were washed several times in phosphate saline buffer 10 mM at pH 7.4 (PBS) to remove paraformaldehyde and then incubated for 1 h in a solution of 0.1% Triton X-100 and 0.1% sodium citrate, at 4 °C. Apoptosis was assessed using TdT-mediated dUTP nick end labeling (TUNEL) (Roche Diagnostics) according to manufacturer’s instructions. After washing in PBS containing 1% bovine albumin serum (BSA, Sigma-Aldrich), treated samples were incubated at 37 °C for 90 min in TUNEL solution in a humidified chamber, in the dark. Control embryos were fixed and stained as described above. To obtain TUNEL-positive control samples, embryos were incubated for 10 min in 50 mM Tris-HCl, pH 7.5, 10 mM MgCl2, 0.1% dithiothreitol, containing 250 μg mL^−1 DNase I (grade II from bovine pancreas; Boehringer GmbH, Mannheim, Germany) at room temperature. Negative controls were obtained by incubating embryos in label solution only, as recommended by the manufacturer. […] Pictures were taken using a Zeiss Axiocam connected directly to the microscope.

Data set [7] has the same test system. In words: Teratogenic effect after 48 hours of incubation (abnormalities and mortality of larvae). It is filed as in vivo. As for the experimental part: PUAs were also tested for their teratogenic effect after long term incubations. After 48 hours of incubation with test compounds, the number of abnormalities and mortality were assessed according to Pagano et al.. Embryos at various stages were observed under a light microscope (Zeiss Axiovert 135TV). Pictures were taken using a Zeiss Axiocam connected directly to the microscope.

Another data set concerns early P. lividus embryos. Set-up: method as in PMID 12939379. The conditions noted are these: cited from earlier work.
A further data set has as its system pelagic copepods. The arrangement: method as in ref 28 = [28]; 28 Ianora A Romano G Carotenuto Y Esposito F Roncalli V Buttino I Miralto A Impact of the diatom oxylipin 15S-HEPE on the reproductive success of the copepod Temora stylifera Hydrobiologia 2010 submit. Conditions: printed equivalent 6.58 μM; cited from earlier work.

Turning to `CC/C=C\C/C=C\C/C=C\C/C=C\C/C=C\CCCC(=O)OC` [EPA methyl-ester], the “Activity on cleavage compared with EPA” value in [1] (in vivo) is on record as “drastic reduction in the activity”. In addition, the “Concentration of total inhibition of hatching viability (0% of hatched larvae)” value in data set [2] came to 158 µM.

Consider `CCC/C=C/C=C/C=O` [octadienal, 2-trans,4-trans–octadienal], for which the “Concentration at which arrest (100% blockage) of cell cleavage occurs” value in data set [1] (circa 120 eggs mL−1) was determined as 16.13 µM. Besides, in data set [2], the “Concentration of total inhibition of hatching viability (0% of hatched larvae)” value worked out at 8.08 µM and the Hatching viability is more than 90%.

In the case of `CCCCCCCCCCCCC=O` [tridecanal], the “Effect on first cleavage” value in data set [1] (up to 25 μM, higher concentrations not tested due to solubility problems in sea water) is on record as “did not interfere with first cleavage”.

Regarding `CCCCCC=CCC=CCC=CCCCCC(=O)O` [γ-linolenic, 6,9,12-octadecatrienoic acid], in data set [1] (highest concentration tested 359 μM, 90 min after fertilization), the Activity on cleavage entry is listed as “no activity”. Further, the “Hatching (percentage of embryos)” value in data set [2] (at 360 μM) was 50%.

Take `CCC=CCC=CCC=CCC=CCC=CCC(=O)O` [octadecapentaenoic acid]: the “Concentration of total blockage of first cleavage” value in data set [3] is on record as not below 1 mM.

As to `C=CC/C=C/C=C/C=O` [octatrienal, 2-trans,4-trans,7-octatrienal], in data set [1] (circa 120 eggs mL−1), the “Concentration at which arrest (100% blockage) of cell cleavage occurs” value stood at 11.47 µM.

`CCC=CCC=CCC=CCC=CCC=CCC=CCCC(=O)O` [DHA, 4,7,10,13,16,19-docosahexaenoic acid]: the “Percentage of embryos that underwent first cleavage” value in data set [1] (at 304 μM, 90 min after fertilization) is given as 34%. Besides, the “Effect on the transition to swimming blastula / larval stage” value in data set [2] is “interfered with the transition to the larval stage”.

Regarding `O=C/C=C/C=C\CCCC(=O)O` [9-oxo-nona-5Z,7E-dienoic acid, reference compound], the “Activity on embryo cleavage” value in data set [4] (S. granularis embryos) was “not inhibitory”.

As a reminder, the IC50 is the point on the concentration scale where inhibition reaches its midpoint. Turning to `CCCCC/C=C/C=C/C=O` [decadienal, 2-trans,4-trans-decadienal], the “Decadienal concentration in f/2 medium” value in data set [5] (after 24 hours (start of the gradual decrease), 8.96 μM starting concentration) is given as 7.92 (±0.3 SD) μM; in [5] (after seven days of incubation, natural light, 20 °C, closed vessel, 8.96 μM starting concentration) it was 4.63 (±0.017) μM. Moreover, in data set [5] (after 24 hours, f/2 medium, 8.96 μM starting concentration), the “Change of initial concentration” value is on record as 11.70%. Further, in data set [5] (f/2 medium), the “Time for which the aldehyde can be detected spectrophotometrically” value is given as “up to 14 days”. Moreover, the “Time without significant change of the initial concentration” value in data set [5] (f/2 medium, 8.96 μM starting concentration, closed flask, 20 °C) is “at least six”. The “Sub-lethal concentration inducing abnormal tadpole larvae” value in the data set with Ciona intestinalis was 0.2 µg/mL. Further, the half-maximal inhibitory concentration (IC50) in data set [1] (95% CI = 2.96 to 3.06 μM, circa 120 eggs mL−1) is 3.01 µM; in data set [4] (S. granularis embryos, read-out: IC50 of cleavage inhibition), 7.3 µM; in data set [4] (S. granularis, low egg density, read-out: IC50 of blockage of cell divisions in newly fertilized eggs), 1.3 µM. Moreover, the “Concentration at which arrest (100% blockage) of cell cleavage occurs” value in data set [1] (circa 120 eggs mL−1) is 5.26 µM. Besides, the “Number of embryos presenting a high degree of apoptosis (TUNEL)” value in [6] (1.32 μM) is given as “more or less the same as in the control”. Also, in data set [6] (2.63 μM), the “Larvae TUNEL-positive in the entire body” value is “approximately 80%”. Besides, the “Larvae TUNEL-positive” value in data set [6] (3.95 μM) is “almost all of the larvae were positively stained”. Also, the “Minimum dose to inhibit 100% of embryo cleavage” value in [4] (S. granularis embryos) is “about 20 μM”. Moreover, the Abnormal plutei in data set [7] (1.32 μM, 48 hours, ± SD) is on record as 11.08% ± 4.4. In addition, the Retarded larvae in data set [7] (1.32 μM, 48 hours, ± SD) is given as 11.64% ± 8.2. Also, in [7] (2.63 μM, 48 hours, ±22.42 SD), the “Dead and pre-hatching embryos” value is listed as “up to 29.4%”. Besides, the Dead embryos in data set [7] (3.95 μM, 48 hours, ± SD) was 53.7% (±24.7 SD). Besides, the “Embryos not able to survive” value in data set [7] (5.26 μM, 48 hours, ± SD) is 85.1% (±24.7 SD). Moreover, in data set [7] (in vivo), the “Concentration at which embryos were unable to develop beyond the blastula stage” value was not below 3.95 µM. Also, the “Sub-lethal concentrations that increased abnormal plutei and delayed development” value in data set [7] (newly fertilized eggs, 48 hours) is 1.32 to 5.26 µM. Moreover, the “Concentration of total inhibition of hatching viability (0% of hatched larvae)” value in data set [2] worked out at 3.95 µM. In data set [2], this compound showed a Hatching viability of less than 50%. Further, the “Concentration inducing apoptosis relative to the dose required to induce 100% cleavage inhibition” value in the data set on early P. lividus embryos is “five”. Besides, the “Concentration to induce malformations and apoptosis” value with pelagic copepods was 1000 ng/mL.

With `CC/C=C/C=C/C=O` [heptadienal, 2-trans,4-trans-heptadienal], the “Concentration at which arrest (100% blockage) of cell cleavage occurs” value in [1] (circa 120 eggs mL−1) was 27.27 µM. In [2], the “Concentration of total inhibition of hatching viability (0% of hatched larvae)” value stood at 11.36 µM and the Hatching viability is recorded as more than 90%.

Consider `CCC=CCC=CCC=CCC=CCC=CCCCC(=O)O` [EPA, 5,8,11,14,17-eicosapentaenoic acid], for which, in data set [1] (circa 120 eggs mL−1), the “Concentration at which arrest (100% blockage) of cell cleavage occurs” value worked out at 331 µM. Further, in data set [2], the “Concentration of total inhibition of hatching viability (0% of hatched larvae)” value was “approximately 83 μM” and the “Effect on the transition to swimming blastula / larval stage” value is reported as “interfered with the transition to the larval stage”.

Turning to `CCC=CCC=CCC=CCC=CCCCCC(=O)O` [stearidonic acid, 6,9,12,15-octadecatetraenoic acid], the “Concentration at which arrest (100% blockage) of cell cleavage occurs” value in data set [1] (circa 120 eggs mL−1) amounted to 181 µM. The “Effect on the transition to swimming blastula / larval stage” value in [2] is on record as “interfered with the transition to the larval stage”.

Turning to `CCCCCC=CCC=CCCCCCCCC(=O)O` [linoleic, 9,12-octadecadienoic acid], in data set [1] (highest concentration tested 357 μM, 90 min after fertilization), the Activity on cleavage entry was “no activity”. Further, the “Hatching (percentage of embryos)” value in [2] (at 357 μM) came out at 60%.
